The subject of the first assay is Ovsaho. Description: drug sensitivity score (DSS) from 5-point dose-response viability curve (DSS (area-under-curve based score)); higher = more sensitive (stronger growth inhibition or killing); extreme values may be limits of the assay. To be noted: exposure time: 72 h; concentration range: 5 concentrations over 10,000-fold range. The method in brief: (§1)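 For the drug sensitivity score, obtained per cell line and drug in Breeze software, larger values mean greater sensitivity. No response corresponds to a score of zero. Ovarian cancer and normal ovarian cells were seeded at 1,500 per well into 384-well plates already holding acoustically dispensed drugs (Echo 550, DMSO or water, five concentrations over a 10,000-fold range) and incubated 3 days at 37°C, 5% CO2. CellTiter-Glo luminescence on a PHERAstar FS gave the viability readout.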
Molecule `COc1cc(N2CCN(C)CC2)ccc1Nc1nccc(-c2cn(C)c3cnccc23)n1` [AZ191] yielded a drug sensitivity score of 1.6.

`FC(F)(F)c1ccc(CNc2ccc(Cc3c[nH]c4ncc(Cl)cc34)cn2)cn1` [Pexidartinib] gave a drug sensitivity score of 0.1.

In turn, `CNC(=O)c1cc(Oc2ccc(NC(=O)Nc3ccc(Cl)c(C(F)(F)F)c3)c(F)c2)ccn1` [Regorafenib] yielded a drug sensitivity score of 2.

On to `C[C@@H]1CN(Cc2ccc(F)cc2)[C@@H](C)CN1C(=O)c1cc2c(C(=O)C(=O)N(C)C)cn(C)c2cc1Cl` [Talmapimod], for which the drug sensitivity score was 0.

The molecule `COc1cc([C@@H]2c3cc4c(cc3[C@@H](O[C@@H]3O[C@@H]5CO[C@@H](c6cccs6)O[C@H]5[C@H](O)[C@H]3O)[C@H]3COC(=O)[C@H]23)OCO4)cc(OC)c1O` [Teniposide] gave a drug sensitivity score of 0.

For the molecule `COc1cc2ncnc(Nc3ccc(F)c(Cl)c3)c2cc1NC(=O)/C=C/CN1CCCCC1` [Dacomitinib], the drug sensitivity score is 2.6.

For `CCOCc1nc2c(N)nc3ccccc3c2n1CC(C)(C)O` [Resiquimod], the drug sensitivity score turned out to be 0.3.

As for `Cc1ccc(C(=O)N(CCCN)[C@@H](c2oc3cc(Cl)ccc3c(=O)c2Cc2ccccc2)C(C)C)cc1`, the drug sensitivity score was found to be 4.1.

On to `CN1CCC(CNc2ccc3ncc(-c4cccc(OC(F)(F)F)c4)n3n2)CC1` [SGI-1776], for which the drug sensitivity score worked out at 7.7.

The molecule `Cc1ccc(-c2cc(C(F)(F)F)nn2-c2ccc(S(N)(=O)=O)cc2)cc1` [Celecoxib] registered a drug sensitivity score of 0.

`Oc1nc(-c2ccc(C(F)(F)F)cc2)nc2c1CSCC2` [XAV-939] came in with a drug sensitivity score of 2.3.

With `COc1cc(Nc2ncc(F)c(Nc3ccc4c(n3)NC(=O)C(C)(C)O4)n2)cc(OC)c1OC` [Tamatinib], the drug sensitivity score turned out to be 3.8.

As for `Nc1nc(Cl)nc2c1ncn2[C@H]1C[C@H](O)[C@@H](CO)O1` [Cladribine], the drug sensitivity score came out at 0.1.

`O=S(=O)(c1cccc2c(O)nccc12)N1CCCNCC1` [Hydroxyfasudil] displayed a drug sensitivity score of 0.

`Nc1nc(Cl)nc2c1ncn2[C@@H]1O[C@H](CO)[C@@H](O)[C@@H]1F` [Clofarabine] yielded a drug sensitivity score of 4.7.

The test system of the next assay is OVCAR5. Described as above. As to conditions: exposure time: 72 h; concentration range: 5 concentrations over 10,000-fold range. Put shortly:
as §1
With `COc1cc(N2CCN(C)CC2)ccc1Nc1nccc(-c2cn(C)c3cnccc23)n1` [AZ191], the drug sensitivity score is 2.

The molecule `FC(F)(F)c1ccc(CNc2ccc(Cc3c[nH]c4ncc(Cl)cc34)cn2)cn1` [Pexidartinib] gave a drug sensitivity score of 2.3.

In turn, `CNC(=O)c1cc(Oc2ccc(NC(=O)Nc3ccc(Cl)c(C(F)(F)F)c3)c(F)c2)ccn1` [Regorafenib] came in with a drug sensitivity score of 4.4.

On to `C[C@@H]1CN(Cc2ccc(F)cc2)[C@@H](C)CN1C(=O)c1cc2c(C(=O)C(=O)N(C)C)cn(C)c2cc1Cl` [Talmapimod], for which the drug sensitivity score was 0.

Turning to `COc1cc([C@@H]2c3cc4c(cc3[C@@H](O[C@@H]3O[C@@H]5CO[C@@H](c6cccs6)O[C@H]5[C@H](O)[C@H]3O)[C@H]3COC(=O)[C@H]23)OCO4)cc(OC)c1O` [Teniposide], the drug sensitivity score was determined as 0.

For `COc1cc2ncnc(Nc3ccc(F)c(Cl)c3)c2cc1NC(=O)/C=C/CN1CCCCC1` [Dacomitinib], the drug sensitivity score stood at 5.

On to `CCOCc1nc2c(N)nc3ccccc3c2n1CC(C)(C)O` [Resiquimod], for which the drug sensitivity score turned out to be 0.3.

For `Cc1ccc(C(=O)N(CCCN)[C@@H](c2oc3cc(Cl)ccc3c(=O)c2Cc2ccccc2)C(C)C)cc1`, the drug sensitivity score is 4.5.

`CN1CCC(CNc2ccc3ncc(-c4cccc(OC(F)(F)F)c4)n3n2)CC1` [SGI-1776]: the drug sensitivity score amounted to 6.9.

In turn, `Cc1ccc(-c2cc(C(F)(F)F)nn2-c2ccc(S(N)(=O)=O)cc2)cc1` [Celecoxib] had a drug sensitivity score of 0.

In the case of `Oc1nc(-c2ccc(C(F)(F)F)cc2)nc2c1CSCC2` [XAV-939], the drug sensitivity score amounted to 0.

Regarding `COc1cc(Nc2ncc(F)c(Nc3ccc4c(n3)NC(=O)C(C)(C)O4)n2)cc(OC)c1OC` [Tamatinib], the drug sensitivity score was 4.5.

The molecule `Nc1nc(Cl)nc2c1ncn2[C@H]1C[C@H](O)[C@@H](CO)O1` [Cladribine] showed a drug sensitivity score of 2.1.

Turning to `O=S(=O)(c1cccc2c(O)nccc12)N1CCCNCC1` [Hydroxyfasudil], the drug sensitivity score is 0.

In turn, `Nc1nc(Cl)nc2c1ncn2[C@@H]1O[C@H](CO)[C@@H](O)[C@@H]1F` [Clofarabine] showed a drug sensitivity score of 9.5.

In a further assay the test system is HOSE2C. The assay is described as above. As to conditions: exposure time: 72 h; concentration range: 5 concentrations over 10,000-fold range. The method in brief: as §1
`COc1cc(N2CCN(C)CC2)ccc1Nc1nccc(-c2cn(C)c3cnccc23)n1` [AZ191] gave a drug sensitivity score of 1.9.

On to `FC(F)(F)c1ccc(CNc2ccc(Cc3c[nH]c4ncc(Cl)cc34)cn2)cn1` [Pexidartinib], for which the drug sensitivity score is 0.

With `CNC(=O)c1cc(Oc2ccc(NC(=O)Nc3ccc(Cl)c(C(F)(F)F)c3)c(F)c2)ccn1` [Regorafenib], the drug sensitivity score was determined as 2.7.

`C[C@@H]1CN(Cc2ccc(F)cc2)[C@@H](C)CN1C(=O)c1cc2c(C(=O)C(=O)N(C)C)cn(C)c2cc1Cl` [Talmapimod] gave a drug sensitivity score of 0.

`COc1cc([C@@H]2c3cc4c(cc3[C@@H](O[C@@H]3O[C@@H]5CO[C@@H](c6cccs6)O[C@H]5[C@H](O)[C@H]3O)[C@H]3COC(=O)[C@H]23)OCO4)cc(OC)c1O` [Teniposide] registered a drug sensitivity score of 0.

In turn, `COc1cc2ncnc(Nc3ccc(F)c(Cl)c3)c2cc1NC(=O)/C=C/CN1CCCCC1` [Dacomitinib] came in with a drug sensitivity score of 0.

`CCOCc1nc2c(N)nc3ccccc3c2n1CC(C)(C)O` [Resiquimod] displayed a drug sensitivity score of 0.

Turning to `Cc1ccc(C(=O)N(CCCN)[C@@H](c2oc3cc(Cl)ccc3c(=O)c2Cc2ccccc2)C(C)C)cc1`, the drug sensitivity score worked out at 9.2.

In the case of `CN1CCC(CNc2ccc3ncc(-c4cccc(OC(F)(F)F)c4)n3n2)CC1` [SGI-1776], the drug sensitivity score is 7.2.

As to `Cc1ccc(-c2cc(C(F)(F)F)nn2-c2ccc(S(N)(=O)=O)cc2)cc1` [Celecoxib], the drug sensitivity score worked out at 0.

In turn, `Oc1nc(-c2ccc(C(F)(F)F)cc2)nc2c1CSCC2` [XAV-939] displayed a drug sensitivity score of 0.

With `COc1cc(Nc2ncc(F)c(Nc3ccc4c(n3)NC(=O)C(C)(C)O4)n2)cc(OC)c1OC` [Tamatinib], the drug sensitivity score was determined as 6.2.

The molecule `Nc1nc(Cl)nc2c1ncn2[C@H]1C[C@H](O)[C@@H](CO)O1` [Cladribine] showed a drug sensitivity score of 0.

`O=S(=O)(c1cccc2c(O)nccc12)N1CCCNCC1` [Hydroxyfasudil] had a drug sensitivity score of 0.

Take `Nc1nc(Cl)nc2c1ncn2[C@@H]1O[C@H](CO)[C@@H](O)[C@@H]1F` [Clofarabine]: the drug sensitivity score was determined as 24.1.

These data come from the supplement of paper PMC11616607.
